Several values for one entry are separate records, joined by “and”; a condition that tells them apart may be missing. Equal entries are not always repeated. Inconclusive results and toxic doses are left out.
Tested on: BDF1 mice, P388 leukemia ip, median survival T/C
Experiment: NCI In Vivo Anticancer Drug Screen. Data for tumor model P388 Leukemia (intraperitoneal) in B6D2F1 (BDF1) mice
Conditions: endpoint: median survival time, higher = longer survival
How it was run: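 Transplantable tumour in mice; compound vs vehicle dosing; survival scored; ratio of treated to control reported.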

[1] = dose: 25.0 mg/kg/injection, schedule: Q01DX009 (ip), vehicle: saline
[2] = dose: 25.0 mg/kg/injection, schedule: Q04DX003 (ip), vehicle: saline
[3] = dose: 50.0 mg/kg/injection, schedule: Q01DX009 (ip), vehicle: saline
[4] = dose: 50.0 mg/kg/injection, schedule: Q04DX003 (ip), vehicle: saline
[5] = dose: 100.0 mg/kg/injection, schedule: Q01DX009 (ip), vehicle: saline
[6] = dose: 100.0 mg/kg/injection, schedule: Q04DX003 (ip), vehicle: saline with Tween-80
[7] = dose: 200.0 mg/kg/injection, schedule: Q04DX003 (ip), vehicle: saline with Tween-80
[8] = dose: 400.0 mg/kg/injection, schedule: Q04DX003 (ip), vehicle: saline with Tween-80
[9] = dose: 100.0 mg/kg/injection, schedule: Q04DX003 (ip), vehicle: saline
[10] = dose: 200.0 mg/kg/injection, schedule: Q04DX003 (ip), vehicle: saline
[11] = dose: 100.0 mg/kg/injection, schedule: Q01DX009 (ip), vehicle: saline with Tween-80

Q: CN(C)CCC=C1c2ccccc2-c2ccccc21 was tested. Which T/C (dose: 12.5 mg/kg/injection, schedule: Q04DX003 (ip), vehicle: saline) did it give?
A: 100 % of control

Q: And the T/C [1]?
A: 115 % of control

Q: What about the T/C [2] of the same compound?
A: 90 % of control

Q: What about the T/C [3] of the same compound?
A: 109 % of control and 120 % of control

Q: And the T/C [4]?
A: 100 % of control

Q: And the T/C (dose: 75.0 mg/kg/injection, schedule: Q04DX003 (ip), vehicle: saline)?
A: 113 % of control

Q: And the T/C [5]?
A: 113 % of control

Q: What about the T/C (dose: 115.0 mg/kg/injection, schedule: Q04DX003 (ip), vehicle: saline) of the same compound?
A: 95 % of control

Q: COC(=O)/C(C#N)=C/c1c[nH]c2ccccc12 was tested. Which T/C [6] did it give?
A: 100 % of control

Q: What about the T/C [7] of the same compound?
A: 109 % of control

Q: What about the T/C [8] of the same compound?
A: 100 % of control

Q: c1ccc(OP2OCCO2)cc1 was tested. Which T/C [3] did it give?
A: 104 % of control

Q: And the T/C [5]?
A: 104 % of control

Q: What about the T/C [9] of the same compound?
A: 87 % of control

Q: What about the T/C (dose: 200.0 mg/kg/injection, schedule: Q01DX009 (ip), vehicle: saline) of the same compound?
A: 95 % of control

Q: What about the T/C [10] of the same compound?
A: 112 % of control

Q: How did the T/C (dose: 12.5 mg/kg/injection, schedule: Q01DX009 (ip), vehicle: saline) turn out when CCCCCCCCCCCCCC[S+](C)C was run?
A: 118 % of control

Q: What about the T/C [1] of the same compound?
A: 100 % of control

Q: What about the T/C [2] of the same compound?
A: 100 % of control

Q: What about the T/C [4] of the same compound?
A: 104 % of control

Q: O=S(=O)(NS(=O)(=O)c1ccc(Cl)cc1)c1ccc(Cl)cc1 was tested. Which T/C (dose: 50.0 mg/kg/injection, schedule: Q01DX009 (ip), vehicle: Klucel (hydroxypropylcellulose) (HPC)) did it give?
A: 95 % of control

Q: What about the T/C (dose: 100.0 mg/kg/injection, schedule: Q01DX009 (ip), vehicle: Klucel (hydroxypropylcellulose) (HPC)) of the same compound?
A: 115 % of control

Q: What about the T/C (dose: 100.0 mg/kg/injection, schedule: Q04DX003 (ip), vehicle: Klucel (hydroxypropylcellulose) (HPC)) of the same compound?
A: 95 % of control

Q: And the T/C (dose: 200.0 mg/kg/injection, schedule: Q01DX009 (ip), vehicle: Klucel (hydroxypropylcellulose) (HPC))?
A: 115 % of control

Q: And the T/C (dose: 200.0 mg/kg/injection, schedule: Q04DX003 (ip), vehicle: Klucel (hydroxypropylcellulose) (HPC))?
A: 86 % of control

Q: With O=C1NC(=O)c2cc([N+](=O)[O-])cc3cccc1c23 as the compound, how does the T/C (dose: 100.0 mg/kg/injection, schedule: Q04DX003 (ip), vehicle: saline sonified) read?
A: 91 % of control

Q: And the T/C (dose: 200.0 mg/kg/injection, schedule: Q04DX003 (ip), vehicle: saline sonified)?
A: 95 % of control

Q: And the T/C (dose: 400.0 mg/kg/injection, schedule: Q04DX003 (ip), vehicle: saline sonified)?
A: 87 % of control

Q: With Cn1/c2cc/c1=C(\c1ccc(S(=O)(=O)O)cc1)c1ccc([n-]1)/C(c1ccc(S(=O)(=O)O)cc1)=c1/cc/c([nH]1)=C(\c1ccc(S(=O)(=O)O)cc1)c1ccc([n-]1)/C=2c1ccc(S(=O)(=O)O)cc1.O.O=S(=O)(O)C(F)(F)F.[Cu+2] as the compound, how does the T/C (dose: 6.25 mg/kg/injection, schedule: Q01DX009 (ip), vehicle: saline) read?
A: 101 % of control

Q: What about the T/C [3] of the same compound?
A: 101 % of control

Q: For O=C1CCC(=O)N1CO, which T/C [2] is on record?
A: 109 % of control

Q: And the T/C (dose: 44.0 mg/kg/injection, schedule: Q04DX003 (ip), vehicle: saline)?
A: 95 % of control

Q: And the T/C [4]?
A: 104 % of control

Q: And the T/C (dose: 66.0 mg/kg/injection, schedule: Q04DX003 (ip), vehicle: saline)?
A: 109 % of control

Q: And the T/C [9]?
A: 118 % of control

Q: What about the T/C (dose: 300.0 mg/kg/injection, schedule: Q04DX003 (ip), vehicle: saline) of the same compound?
A: 159 % of control

Q: With C/C=C1\C[N+]2(C)CCc3c([nH]c4ccccc34)C2CC1Cc1nccc2c1[nH]c1ccccc12 (stereo not drawn) as the compound, how does the T/C (dose: 1.0 mg/kg/injection, schedule: Q04DX003 (ip), vehicle: saline) read?
A: 107 % of control

Q: And the T/C (dose: 2.0 mg/kg/injection, schedule: Q04DX003 (ip), vehicle: saline)?
A: 98 % of control

Q: What about the T/C (dose: 4.0 mg/kg/injection, schedule: Q04DX003 (ip), vehicle: saline) of the same compound?
A: 98 % of control

Q: What about the T/C (dose: 6.0 mg/kg/injection, schedule: Q04DX003 (ip), vehicle: saline) of the same compound?
A: 102 % of control

Q: What about the T/C (dose: 12.0 mg/kg/injection, schedule: Q04DX003 (ip), vehicle: saline) of the same compound?
A: 113 % of control

Q: What about the T/C (dose: 24.0 mg/kg/injection, schedule: Q04DX003 (ip), vehicle: saline) of the same compound?
A: 118 % of control

Q: And the T/C (dose: 48.0 mg/kg/injection, schedule: Q04DX003 (ip), vehicle: saline)?
A: 110 % of control

Q: How did the T/C (dose: 6.25 mg/kg/injection, schedule: Q01DX001 (ip), vehicle: saline) turn out when [Cl][Ni][Cl].[NH-]CCN1CC1.[NH-]CCN1CC1 was run?
A: 100 % of control

Q: What about the T/C (dose: 12.5 mg/kg/injection, schedule: Q01DX001 (ip), vehicle: saline) of the same compound?
A: 100 % of control

Q: And the T/C (dose: 25.0 mg/kg/injection, schedule: Q01DX001 (ip), vehicle: saline)?
A: 100 % of control

Q: How did the T/C [11] turn out when O=Cc1[nH]c(=S)[nH]c(=O)c1Cc1cccc(Cl)c1 was run?
A: 115 % of control

Q: And the T/C [6]?
A: 113 % of control

Q: What about the T/C [7] of the same compound?
A: 118 % of control

Q: And the T/C [8]?
A: 113 % of control

Q: COc1ccccc1/C=N/NC(=O)c1ccccc1 was tested. Which T/C [6] did it give?
A: 100 % of control

Q: What about the T/C [7] of the same compound?
A: 104 % of control

Q: And the T/C [8]?
A: 104 % of control

Q: Br/C(C=Nc1ccccc1)=C\Nc1ccccc1 was tested. Which T/C [11] did it give?
A: 100 % of control

Q: And the T/C (dose: 200.0 mg/kg/injection, schedule: Q01DX009 (ip), vehicle: saline with Tween-80)?
A: 110 % of control

Q: Which T/C (dose: 12.5 mg/kg/injection, schedule: Q01DX010 (ip), vehicle: saline) does the source give for C=C(C)C(=O)/C(=C/C(=O)O)OC here?
A: 113 % of control

Q: And the T/C (dose: 25.0 mg/kg/injection, schedule: Q01DX010 (ip), vehicle: saline)?
A: 109 % of control

Q: What about the T/C (dose: 50.0 mg/kg/injection, schedule: Q01DX010 (ip), vehicle: saline) of the same compound?
A: 118 % of control

Q: How did the T/C (dose: 0.5 mg/kg/injection, schedule: Q01DX009 (ip), vehicle: saline with Tween-80) turn out when CC(O)C1(O)C(O)CC(OC2c3cc4c(c(O)c3[C@@H]3C[C@@]2(C)OC32C=c3cc[nH]c3=N2)C(=O)c2cccc(O)c2C4=O)OC1C (stereo partly drawn) was run?
A: 105 % of control

Q: And the T/C (dose: 0.5 mg/kg/injection, schedule: Q01DX009 (ip), vehicle: saline)?
A: 103 % of control and 109 % of control

Q: What about the T/C (dose: 1.0 mg/kg/injection, schedule: Q01DX009 (ip), vehicle: saline with Tween-80) of the same compound?
A: 119 % of control

Q: What about the T/C (dose: 1.0 mg/kg/injection, schedule: Q01DX009 (ip), vehicle: saline) of the same compound?
A: 118 % of control and 124 % of control

Q: And the T/C (dose: 2.0 mg/kg/injection, schedule: Q01DX009 (ip), vehicle: saline with Tween-80)?
A: 111 % of control

Q: What about the T/C (dose: 2.0 mg/kg/injection, schedule: Q01DX009 (ip), vehicle: saline) of the same compound?
A: 111 % of control and 118 % of control

Q: And the T/C (dose: 4.0 mg/kg/injection, schedule: Q01DX009 (ip), vehicle: saline with Tween-80)?
A: 117 % of control

Q: What about the T/C (dose: 8.0 mg/kg/injection, schedule: Q01DX009 (ip), vehicle: saline with Tween-80) of the same compound?
A: 122 % of control

Q: Which results are given for Cc1cc(=O)c2cc(N(C)C)ccc2[nH]1?
A: T/C (dose: 0.78 mg/kg/injection, schedule: Q01DX009 (ip), vehicle: water): 110 % of control; T/C (dose: 1.56 mg/kg/injection, schedule: Q01DX009 (ip), vehicle: water): 100 % of control; T/C (dose: 3.12 mg/kg/injection, schedule: Q01DX009 (ip), vehicle: water): 101 % of control; T/C (dose: 6.25 mg/kg/injection, schedule: Q01DX009 (ip), vehicle: water): 93 % of control; T/C (dose: 12.5 mg/kg/injection, schedule: Q01DX009 (ip), vehicle: water): 94 % of control and 116 % of control; T/C (dose: 25.0 mg/kg/injection, schedule: Q01DX009 (ip), vehicle: water): 114 % of control; T/C (dose: 50.0 mg/kg/injection, schedule: Q01DX009 (ip), vehicle: water): 91 % of control; T/C (dose: 50.0 mg/kg/injection, schedule: Q04DX003 (ip), vehicle: water): 95 % of control; T/C (dose: 100.0 mg/kg/injection, schedule: Q01DX009 (ip), vehicle: water): 107 % of control; T/C (dose: 100.0 mg/kg/injection, schedule: Q04DX003 (ip), vehicle: water): 103 % of control; T/C (dose: 200.0 mg/kg/injection, schedule: Q04DX003 (ip), vehicle: water): 103 % of control; T/C (dose: 400.0 mg/kg/injection, schedule: Q01DX009 (ip), vehicle: water): 86 % of control; T/C (dose: 400.0 mg/kg/injection, schedule: Q04DX003 (ip), vehicle: water): 96 % of control

Q: With NC=NC(CCC(=O)O)C(=O)O (stereo not drawn) as the compound, how does the T/C (dose: 12.5 mg/kg/injection, schedule: Q01DX005 (ip), vehicle: saline) read?
A: 90 % of control

Q: And the T/C (dose: 25.0 mg/kg/injection, schedule: Q01DX005 (ip), vehicle: saline)?
A: 96 % of control

Q: What about the T/C (dose: 50.0 mg/kg/injection, schedule: Q01DX005 (ip), vehicle: saline) of the same compound?
A: 91 % of control

Q: For O=C(Nc1cccc(C(F)(F)F)c1)Nc1c(Oc2ccc(Cl)c(Cl)c2)ccc(Cl)c1S(=O)(=O)O, which T/C [4] is on record?
A: 90 % of control

Q: What about the T/C [9] of the same compound?
A: 100 % of control

Q: And the T/C [10]?
A: 113 % of control

Q: Which T/C (dose: 100.0 mg/kg/injection, schedule: Q01DX001 (ip), vehicle: saline sonified) does the source give for NC(=S)NNC(=O)/C=C/c1ccccc1 here?
A: 104 % of control

Q: And the T/C (dose: 200.0 mg/kg/injection, schedule: Q01DX001 (ip), vehicle: saline sonified)?
A: 100 % of control

Q: What about the T/C (dose: 400.0 mg/kg/injection, schedule: Q01DX001 (ip), vehicle: saline sonified) of the same compound?
A: 95 % of control

From PubChem BioAssay AID328 (DTP/NCI, 2004)
